Laboratory results taken from article PMC9481151, “Discovery of new symmetrical and asymmetrical nitrile-containing 1,4-dihydropyridine derivatives as dual kinases and P-glycoprotein inhibitors: synthesis, in vitro assays, and in silico studies” (Journal of Enzyme Inhibition and Medicinal Chemistry, 2022).

Assays:
[1] = tested on: CCRF-CEM; assay: NCI single dose (10 µM) SRB screen; format: cell-based, human; details: leukaemia, 48 h
[2] = tested on: HL-60(TB); assay: NCI single dose (10 µM) SRB screen; format: cell-based, human; details: leukaemia, 48 h
[3] = tested on: K-562; assay: NCI single dose (10 µM) SRB screen; format: cell-based, human; details: leukaemia, 48 h
[4] = tested on: MOLT-4; assay: NCI single dose (10 µM) SRB screen; format: cell-based, human; details: leukaemia, 48 h
[5] = tested on: RPMI-8226; assay: NCI single dose (10 µM) SRB screen; format: cell-based, human; details: leukaemia, 48 h
[6] = tested on: SR; assay: NCI single dose (10 µM) SRB screen; format: cell-based, human; details: leukaemia, 48 h
[7] = tested on: A549/ATCC; assay: NCI single dose (10 µM) SRB screen; format: cell-based, human; details: non-small cell lung cancer, 48 h
[8] = tested on: EKVX; assay: NCI single dose (10 µM) SRB screen; format: cell-based, human; details: non-small cell lung cancer, 48 h
[9] = tested on: HOP-62; assay: NCI single dose (10 µM) SRB screen; format: cell-based, human; details: non-small cell lung cancer, 48 h
[10] = tested on: HOP-92; assay: NCI single dose (10 µM) SRB screen; format: cell-based, human; details: non-small cell lung cancer, 48 h
[11] = tested on: NCI-H226; assay: NCI single dose (10 µM) SRB screen; format: cell-based, human; details: non-small cell lung cancer, 48 h
[12] = tested on: NCI-H23; assay: NCI single dose (10 µM) SRB screen; format: cell-based, human; details: non-small cell lung cancer, 48 h
[13] = tested on: NCI-H322M; assay: NCI single dose (10 µM) SRB screen; format: cell-based; details: non-small cell lung cancer, 48 h
[14] = tested on: NCI-H460; assay: NCI single dose (10 µM) SRB screen; format: cell-based, human; details: non-small cell lung cancer, 48 h
[15] = tested on: NCI-H522; assay: NCI single dose (10 µM) SRB screen; format: cell-based, human; details: non-small cell lung cancer, 48 h
[16] = tested on: COLO 205; assay: NCI single dose (10 µM) SRB screen; format: cell-based, human; details: colon cancer, 48 h
[17] = tested on: HCC-2998; assay: NCI single dose (10 µM) SRB screen; format: cell-based, human; details: colon cancer, 48 h
[18] = tested on: HCT-116; assay: NCI single dose (10 µM) SRB screen; format: cell-based, human; details: colon cancer, 48 h
[19] = tested on: HCT-15; assay: NCI single dose (10 µM) SRB screen; format: cell-based, human; details: colon cancer, 48 h
[20] = tested on: HT29; assay: NCI single dose (10 µM) SRB screen; format: cell-based, human; details: colon cancer, 48 h
[21] = tested on: KM12; assay: NCI single dose (10 µM) SRB screen; format: cell-based, human; details: colon cancer, 48 h
[22] = tested on: SW-620; assay: NCI single dose (10 µM) SRB screen; format: cell-based, human; details: colon cancer, 48 h
[23] = tested on: SF-268; assay: NCI single dose (10 µM) SRB screen; format: cell-based, human; details: CNS cancer, 48 h
[24] = tested on: SF-295; assay: NCI single dose (10 µM) SRB screen; format: cell-based, human; details: CNS cancer, 48 h
[25] = tested on: SF-539; assay: NCI single dose (10 µM) SRB screen; format: cell-based, human; details: CNS cancer, 48 h
[26] = tested on: SNB-19; assay: NCI single dose (10 µM) SRB screen; format: cell-based, human; details: CNS cancer, 48 h
[27] = tested on: SNB-75; assay: NCI single dose (10 µM) SRB screen; format: cell-based, human; details: CNS cancer, 48 h
[28] = tested on: U251; assay: NCI single dose (10 µM) SRB screen; format: cell-based, human; details: CNS cancer, 48 h
[29] = tested on: LOX IMVI; assay: NCI single dose (10 µM) SRB screen; format: cell-based, human; details: melanoma, 48 h
[30] = tested on: MALME-3M; assay: NCI single dose (10 µM) SRB screen; format: cell-based, human; details: melanoma, 48 h
[31] = tested on: M14; assay: NCI single dose (10 µM) SRB screen; format: cell-based, human; details: melanoma, 48 h
[32] = tested on: MDA-MB-435; assay: NCI single dose (10 µM) SRB screen; format: cell-based, human; details: melanoma, 48 h
[33] = tested on: SK-MEL-2; assay: NCI single dose (10 µM) SRB screen; format: cell-based, human; details: melanoma, 48 h
[34] = tested on: SK-MEL-28; assay: NCI single dose (10 µM) SRB screen; format: cell-based, human; details: melanoma, 48 h
[35] = tested on: SK-MEL-5; assay: NCI single dose (10 µM) SRB screen; format: cell-based, human; details: melanoma, 48 h
[36] = tested on: UACC-257; assay: NCI single dose (10 µM) SRB screen; format: cell-based, human; details: melanoma, 48 h
[37] = tested on: UACC-62; assay: NCI single dose (10 µM) SRB screen; format: cell-based, human; details: melanoma, 48 h
[38] = tested on: IGROV1; assay: NCI single dose (10 µM) SRB screen; format: cell-based, human; details: ovarian cancer, 48 h
[39] = tested on: OVCAR-3; assay: NCI single dose (10 µM) SRB screen; format: cell-based, human; details: ovarian cancer, 48 h
[40] = tested on: OVCAR-4; assay: NCI single dose (10 µM) SRB screen; format: cell-based, human; details: ovarian cancer, 48 h
[41] = tested on: OVCAR-5; assay: NCI single dose (10 µM) SRB screen; format: cell-based, human; details: ovarian cancer, 48 h
[42] = tested on: OVCAR-8; assay: NCI single dose (10 µM) SRB screen; format: cell-based, human; details: ovarian cancer, 48 h
[43] = tested on: NCI/ADR-RES; assay: NCI single dose (10 µM) SRB screen; format: cell-based, human; details: ovarian cancer, 48 h
[44] = tested on: SK-OV-3; assay: NCI single dose (10 µM) SRB screen; format: cell-based, human; details: ovarian cancer, 48 h
[45] = tested on: 786-0; assay: NCI single dose (10 µM) SRB screen; format: cell-based, human; details: renal cancer, 48 h
[46] = tested on: A498; assay: NCI single dose (10 µM) SRB screen; format: cell-based, human; details: renal cancer, 48 h
[47] = tested on: ACHN; assay: NCI single dose (10 µM) SRB screen; format: cell-based, human; details: renal cancer, 48 h
[48] = tested on: CAKI-1; assay: NCI single dose (10 µM) SRB screen; format: cell-based, human; details: renal cancer, 48 h
[49] = tested on: RXF 393; assay: NCI single dose (10 µM) SRB screen; format: cell-based, human; details: renal cancer, 48 h
[50] = tested on: SN12C; assay: NCI single dose (10 µM) SRB screen; format: cell-based, human; details: renal cancer, 48 h
[51] = tested on: TK-10; assay: NCI single dose (10 µM) SRB screen; format: cell-based, human; details: renal cancer, 48 h
[52] = tested on: UO-31; assay: NCI single dose (10 µM) SRB screen; format: cell-based, human; details: renal cancer, 48 h
[53] = tested on: PC-3; assay: NCI single dose (10 µM) SRB screen; format: cell-based, human; details: prostate cancer, 48 h
[54] = tested on: DU-145; assay: NCI single dose (10 µM) SRB screen; format: cell-based, human; details: prostate cancer, 48 h
[55] = tested on: MCF7; assay: NCI single dose (10 µM) SRB screen; format: cell-based, human; details: breast cancer, 48 h
[56] = tested on: MDA-MB-231; assay: NCI single dose (10 µM) SRB screen; format: cell-based, human; details: breast cancer, 48 h
[57] = tested on: HS578T; assay: NCI single dose (10 µM) SRB screen; format: cell-based, human; details: breast cancer, 48 h
[58] = tested on: BT-549; assay: NCI single dose (10 µM) SRB screen; format: cell-based, human; details: breast cancer, 48 h
[59] = tested on: T-47D; assay: NCI single dose (10 µM) SRB screen; format: cell-based, human; details: breast cancer, 48 h
[60] = tested on: MDA-MB-468; assay: NCI single dose (10 µM) SRB screen; format: cell-based, human; details: breast cancer, 48 h
[61] = tested on: NCI 60 cancer cell lines; assay: NCI single dose (10 µM) SRB screen, mean over panel; format: cell-based, human; details: mean over 60 cell lines, 48 h
[62] = tested on: Staphylococcus aureus; assay: Agar well diffusion method
[63] = tested on: Bacillus subtilis; assay: Agar well diffusion method; details: relative to ciprofloxacin
[64] = tested on: Escherichia coli; assay: Agar well diffusion method; details: relative to ciprofloxacin
[65] = tested on: Pseudomonas aeruginosa; assay: Agar well diffusion method; details: relative to ciprofloxacin
[66] = tested on: Candida albicans; assay: Agar well diffusion method; details: relative to clotrimazole
[67] = tested on: Aspergillus flavus; assay: Agar well diffusion method; details: relative to clotrimazole

- melting point: 121 to 122 °C
Structure (SMILES): CCCC1=C(C(=O)OCC)C(c2cccc(C#N)c2)C(C(=O)OC)=C(C)N1 (racemic) [Compound 2f, (±)-3-Ethyl 5-methyl 4-(3-cyanophenyl)-6-methyl-2-propyl-1,4-dihydropyridine-3,5-dicarboxylate]
- GI% CCRF-CEM [1]: – (Only GI% ≥ 10 are shown)
- GI% HL-60(TB) [2]: 11%
- GI% K-562 [3]: – (Only GI% ≥ 10 are shown)
- GI% MOLT-4 [4]: 14%
- GI% RPMI-8226 [5]: 12%
- GI% SR [6]: – (Only GI% ≥ 10 are shown)
- GI% A549/ATCC [7]: – (Only GI% ≥ 10 are shown)
- GI% EKVX [8]: – (Only GI% ≥ 10 are shown)
- GI% HOP-62 [9]: – (Only GI% ≥ 10 are shown)
- GI% HOP-92 [10]: – (Only GI% ≥ 10 are shown)
- GI% NCI-H226 [11]: – (Only GI% ≥ 10 are shown)
- GI% NCI-H23 [12]: – (Only GI% ≥ 10 are shown)
- GI% NCI-H322M [13]: – (Only GI% ≥ 10 are shown)
- GI% NCI-H460 [14]: – (Only GI% ≥ 10 are shown)
- GI% NCI-H522 [15]: – (Only GI% ≥ 10 are shown)
- GI% COLO 205 [16]: – (Only GI% ≥ 10 are shown)
- GI% HCC-2998 [17]: – (Only GI% ≥ 10 are shown)
- GI% HCT-116 [18]: 11%
- GI% HCT-15 [19]: – (Only GI% ≥ 10 are shown)
- GI% HT29 [20]: – (Only GI% ≥ 10 are shown)
- GI% KM12 [21]: – (Only GI% ≥ 10 are shown)
- GI% SW-620 [22]: – (Only GI% ≥ 10 are shown)
- GI% SF-268 [23]: – (Only GI% ≥ 10 are shown)
- GI% SF-295 [24]: – (Only GI% ≥ 10 are shown)
- GI% SF-539 [25]: – (Only GI% ≥ 10 are shown)
- GI% SNB-19 [26]: – (Only GI% ≥ 10 are shown)
- GI% SNB-75 [27]: 37%
- GI% U251 [28]: – (Only GI% ≥ 10 are shown)
- GI% LOX IMVI [29]: – (Only GI% ≥ 10 are shown)
- GI% MALME-3M [30]: – (Only GI% ≥ 10 are shown)
- GI% M14 [31]: – (Only GI% ≥ 10 are shown)
- GI% MDA-MB-435 [32]: – (Only GI% ≥ 10 are shown)
- GI% SK-MEL-2 [33]: – (Only GI% ≥ 10 are shown)
- GI% SK-MEL-28 [34]: – (Only GI% ≥ 10 are shown)
- GI% SK-MEL-5 [35]: – (Only GI% ≥ 10 are shown)
- GI% UACC-257 [36]: – (Only GI% ≥ 10 are shown)
- GI% UACC-62 [37]: 21%
- GI% IGROV1 [38]: – (Only GI% ≥ 10 are shown)
- GI% OVCAR-3 [39]: – (Only GI% ≥ 10 are shown)
- GI% OVCAR-4 [40]: – (Only GI% ≥ 10 are shown)
- GI% OVCAR-5 [41]: – (Only GI% ≥ 10 are shown)
- GI% OVCAR-8 [42]: – (Only GI% ≥ 10 are shown)
- GI% NCI/ADR-RES [43]: – (Only GI% ≥ 10 are shown)
- GI% SK-OV-3 [44]: – (Only GI% ≥ 10 are shown)
- GI% 786-0 [45]: – (Only GI% ≥ 10 are shown)
- GI% A498 [46]: – (Only GI% ≥ 10 are shown)
- GI% ACHN [47]: – (Only GI% ≥ 10 are shown)
- GI% CAKI-1 [48]: 18%
- GI% RXF 393 [49]: – (Only GI% ≥ 10 are shown)
- GI% SN12C [50]: – (Only GI% ≥ 10 are shown)
- GI% TK-10 [51]: – (Only GI% ≥ 10 are shown)
- GI% UO-31 [52]: 13%
- GI% PC-3 [53]: 23%
- GI% DU-145 [54]: – (Only GI% ≥ 10 are shown)
- GI% MCF7 [55]: – (Only GI% ≥ 10 are shown)
- GI% MDA-MB-231 [56]: – (Only GI% ≥ 10 are shown)
- GI% HS578T [57]: – (Only GI% ≥ 10 are shown)
- GI% BT-549 [58]: – (Only GI% ≥ 10 are shown)
- GI% T-47D [59]: – (Only GI% ≥ 10 are shown)
- GI% MDA-MB-468 [60]: – (Only GI% ≥ 10 are shown)
- Mean GI% [61]: 1%
- zone of inhibition at 1000 µg/mL ([62]; Staphylococcus aureus, 24 h, read-out: Diameter of inhibition zone, S. aureus): 6 mm
- % activity index, S. aureus ([62]; relative to ciprofloxacin): 25%
- % activity index, B. subtilis [63]: – (Values below 25 are of limited value and not shown as they refer either to inactive or non-diffusing compounds)
- % activity index, E. coli [64]: – (Values below 25 are of limited value and not shown as they refer either to inactive or non-diffusing compounds)
- % activity index, P. aeruginosa [65]: – (Values below 25 are of limited value and not shown as they refer either to inactive or non-diffusing compounds)
- % activity index, C. albicans [66]: – (Values below 25 are of limited value and not shown as they refer either to inactive or non-diffusing compounds)
- % activity index, A. flavus [67]: – (Values below 25 are of limited value and not shown as they refer either to inactive or non-diffusing compounds)
